The values that follow come from patent publication US11872230B2, “Method of treating a methionine-dependent cancer” (Agency for Science, Technology and Research, priority 2018, dated 2024).

SMILES strings stand for the structures. “Also recorded” adds a separate entry of the source.

In test [1] the test system is histone methylation in Adh cells. As to the kind of experiment: Western blot of methylated histones in Adh cells. The format is cell-based, human. As to conditions: FIDAS5 treatment. The procedure: (§1) 1.5×10^6 cells were lysed in Llaemli-SDS buffer and then sonicated. Total protein concentration was measured by Bradford assay. Total cell lysates were separated by SDS-PAGE and transferred onto nitrocellulose, followed by blocking in 5% (v/v) milk in Tris-buffered saline in Tween 20, probing with the indicated antibodies and visualized by chemiluminescence (Roche). Primary antibodies used were anti-β-Actin (sc-47778), anti-GAPDH (sc-32233) from Santa Cruz: anti-GLDC (ab97625), anti-H3 (ab1791), anti-H3 (dimethylK36) (ab9049), anti-MAT2A (ab77471), anti-MTR (ab9209), anti-H3 (trimethylK79) (ab2621), anti-MTHFR (ab125707), anti-MTAP (ab ab55517) from Abcam; anti-H3(trimethyl K4) (39159), anti-H3(trimethyl K27)(39155), anti-H3(trimethylK36)(61101) and anti-H3(trimethylK9)(39765) from Active Motif; anti-β-catenin (BD610154) from BD Biosciences; anti-SHMT2 (HPA020549) and anti-SAHH (WH0000191M8) from Sigma; anti-Symmetric Di-Methyl Arginine Motif (13222) from CST.
On the technique in general: A western blot detects proteins with antibodies after separation by electrophoresis.

A further test concerns TS cells (lung TICs). In words: Soft agar colony formation of pre-treated TS cells. The following applies: TS cells treated 48 h with inhibitor prior to soft agar assay. The format is cell-based, human. The procedure: 2.5 ml lower layer of 0.7% agar in complete DMEM/F12 with 10% fetal bovine serum was placed in 3 wells of a 6 well dish, and permitted to solidify. 2×10^4 Cells (for 3 wells) were then suspended in a 2 ml layer of 0.35% agar in complete DMEM/F12 with 10% fetal bovine serum and layered on top of the bottom layer. Colonies were stained with crystal violet and counted after approximately 2 months.
To evaluate the methionine cycle as a therapeutic target in lung TICs, small molecule inhibitors that target enzymes within this pathway were employed, mimicking the effects of short-term methionine starvation (FIG. 5a). two inhibitors known to perturb methionine cycle activity and cellular methylation levels: 1) MAT2A inhibitor, FIDAS5; and 2) SAHH inhibitor, D9, which is an analog of DZNep. In a manner similar to amino acid starvation studies, TS cells were exposed transiently to the compounds for 48 h in culture and were immediately used for downstream tumorigenesis assays.

The subject of test [2] is triple-negative breast cancer (TNBC) cells incl. BC2.2. In words: Sensitivity of triple-negative breast cancer cells to MAT2A inhibition. The format is cell-based. The following applies: in particular chemotherapy resistant BC2.2.
Test [3] has as its system lung patient-derived xenograft (PDX) cells A139, A233. In words: Patient-derived lung tumor xenografts (PDX) in NSG mice. The class given is in vivo. As to conditions: two PDX lines, FIDAS5 40 mg/kg for three days after implantation, six weeks. The text has this: 5×10^5 single cells were mixed in a 1:1 mixture of serum free DMEM/F12 and Matrigel (BD) and injected subcutaneously into the flanks of 4-6 week old male and female NOD.Cg-Prkdc^scid Il2rg^tm1wjl SzJ (Jackson Laboratories). About 6 weeks later, or when tumor sizes exceed 2 cm in length, mice were sacrificed and tumors harvested for analysis. All animal experiments were approved by the Agency for Science Technology and Research Singapore—Biological Resource Centre. Mice were randomized by sex.
Since FIDAS5 appeared to more specifically disrupt the methionine cycle and inhibit cellular methylation activities compared to D9, it was sought to test whether its systemic delivery could impact the tumorigenic potential of TS cells. These highly tumorigenic cells were first subcutaneously implanted into NSG mice and FIDAS5 (40 mg/kg) or corn oil carrier was immediately administered via intraperitoneal injection for three consecutive days. After 6 weeks, mice transiently treated with FIDAS5 produced tumors that were much smaller than carrier-treated controls. […] To exclude the possibility of general cytotoxicity associated with the inhibitor on TS cells, TS cell-implanted NSG mice were treated with cisplatin (4 mg/kg), a frontline chemotherapeutic agent that broadly target bulk cancer cells in NSCLC tumors, in the same manner (FIG. 5i). […]
On the technique in general: Xenograft models place foreign cells or tissue in a host animal.

The subject of test [4] is histone methylation in NIH 3T3 cells. As to the kind of experiment: Western blot of methylated histones in NIH 3T3 cells. As to conditions: FIDAS5 treatment. The format is cell-based. The protocol:
as §1

In test [5] the test system is CD166 expression in TS cells. As to the kind of experiment: CD166 staining of TS cells by flow cytometry. The class given is cell-based, human. As to conditions: FIDAS vs DMSO.

For the compound `CNc1ccc(/C=C/c2c(F)cccc2Cl)cc1` [FIDAS5], the histone methylation marks entry in test [1] and in test [4] was “did not demonstrate reduction in histone methylation marks” in each case. The colony-forming ability entry with TS cells (lung TICs) is reported as “severely diminished”. The “effect on TNBC cells” value in test [2] is reported as “displayed sensitivity; also recorded: effective”. Moreover, the “xenograft tumors smaller relative to sham-treated mice” value in test [3] is recorded as “at least 6 fold”. Further, in test [5], the CD166 expression entry is recorded as “loss of CD166 expression”.
